pEC50: −log10 of the molar value. Results filed as inconclusive are left out. The source made the active and inactive calls. No rule for the calls is given here.
Test system: Chlamydomonas reinhardtii, Nile Red lipid fluorescence, 72 h
Assay: algal triacylglycerol accumulation inducers, dose response, qHTS, Chlamydomonas reinhardtii (AID 1159536)

| SMILES | pEC50 | EC50 |
| --- | --- | --- |
| COc1cccc(N2CCN(C3CCCC(C)C3)CC2)c1 (stereo not drawn) | 5.20 | – |
| COc1cc(CN2CCN(Cc3ccccc3)CC2)cc(OC)c1 | 5.05 | – |
| COc1ccccc1NC(=O)N1CCN(c2ccccn2)CC1 | 5.39 | – |
| CCC(C)c1ccc(OCCCN2CCN(C)CC2)cc1 (stereo not drawn) | 6.04 | – |
| CC(C)(C)c1csc(NC(=O)c2ccc(N3CCOCC3)c([N+](=O)[O-])c2)n1 | 5.58 | – |
| CN1CC=C(CNc2cccc3c2CCCC3)CC1 | 5.59 | – |
| Cc1ccc(OCCCCN2CCCCC2)c(C)c1 | 4.95 | – |
| COc1cc(C)nc(NCc2ccccc2)n1 | 5.88 | – |
| CC(C)C(NS(=O)(=O)c1cccs1)C(C)C | – | 21.6 µM (inactive) |
| C=CCN1C(=O)C(=O)c2cc(Br)ccc21 | 5.23 | – |
| CN1CCN(CC#CC=C(c2ccccc2)c2ccccc2)CC1 | – | 2.57 µM (inactive) |
| C=CCn1c(SCC(=O)O)nnc1-c1ccc([N+](=O)[O-])cc1 | – | 13.6 µM (inactive) |
| Nc1ccc(C(=O)Nc2ccc(Cl)cc2Cl)cc1 | 5.83 | – |
| CSc1ccc(CN2CCSCC2)cc1 | – | 10.5 µM (inactive) |
| Clc1ccccc1OCCCCN1CCOCC1 | 5.27 | – |
| CN(Cc1ccc([N+](=O)[O-])cc1)C1CCCCC1 | 7.06 | – |
| c1coc(CN2CCN(C3CCCCC3)CC2)c1 | 4.92 | – |
| COc1cccc(N2CCN(CC3CC4C=CC3C4)CC2)c1 (stereo not drawn) | 5.90 | – |
| Fc1ccc(N2CCN(Cc3ccsc3)CC2)cc1 | 5.09 | – |
| Brc1ccc(CN2CCN(c3ccccc3)CC2)cc1 | 4.66 | – |
| O=C(Nc1ccccc1)Nc1ccccc1C(=O)N1CCOCC1 | – | 22.2 µM (inactive) |
| CCc1ccc(CN2CCC(C(=O)N(CC)Cc3ccccc3)CC2)cc1 | 6.15 | – |
| Oc1ccc(CN2CCN(Cc3ccccc3)CC2)cc1 | 4.95 | – |
| C1=CC2CC1CC2CN1CCN(c2ccccc2)CC1 (stereo not drawn) | 7.07 | – |
| CCN(CC(O)COc1ccc(Br)cc1)C1CCCCC1 (stereo not drawn) | 4.99 | – |
| Cc1ccc(OCCCCN2CCCC2)cc1C | 5.28 | – |
| CN(CCc1ccccc1)C1CCN(Cc2ccccc2)CC1 | 7.66 | – |

| SMILES | pEC50 | EC50 |
| --- | --- | --- |
| O=C(Nc1ccc(Br)cc1)c1ccccc1Cl | 5.00 | – |
| CCc1ccc(OCCOCCN2CCOCC2)cc1 | 5.00 | – |
| Cc1cc(Br)ccc1OCCCN1CCN(C)CC1 | 5.66 | – |
| CCN(Cc1ccccc1)C(=O)C1CCN(CCCc2ccccc2)CC1 | 5.89 | – |
| COc1ccc(CN(C)C2CCCCC2)cc1C | 5.57 | – |
| COc1ccccc1N1CCN(Cc2ccc(F)cc2)CC1 | 5.55 | – |
| Clc1ccc(OCCCCN2CCOCC2)c(Br)c1 | 6.07 | – |
| Oc1ccc(Br)cc1CN1CCC(N2CCOCC2)CC1 | 4.64 | – |
| c1ccc(CN2CCN(C3CC4CCC3C4)CC2)cc1 (stereo not drawn) | 5.00 | – |
| Cc1ccc(C(=O)NC(C)C2CC3CCC2C3)s1 (stereo not drawn) | – | 15.3 µM (inactive) |
| CCN(Cc1ccccc1)C(=O)C1CCN(Cc2ccccc2F)CC1 | 5.88 | – |
| Cc1cc(C=O)c(C)n1-c1ccc(Br)cc1F | – | 12 µM (inactive) |
| COc1ccc(CN2CCN(c3ncnc4sc5c(c34)CCCC5)CC2)cc1 | 5.32 | – |
| Clc1ccccc1-c1nnc(-c2ccccc2)o1 | 5.57 | – |
| C=CCc1ccccc1OCC(O)CN(C)C1CCCCC1 (stereo not drawn) | 5.31 | – |
| CCc1ccc(CN2CCN(CCO)CC2)cc1 | 5.12 | – |
| O=S(=O)(c1ccc(Cl)c(Cl)c1Cl)N1CCN(c2ccc(F)cc2)CC1 | – | 0.0144 µM (inactive) |
| Cc1ccc(C(=O)Nc2ccc3oc(-c4ccncc4)nc3c2)cc1C | 5.80 | – |
| Cc1cc(Br)ccc1OCCCCN1CCN(C)CC1 | 5.47 | – |
| COc1ccccc1N1CCN(C2CCN(CC3CC4C=CC3C4)CC2)CC1 (stereo not drawn) | 4.98 | – |
| Cc1ccc(OCCCCN2CCOCC2)cc1 | 5.38 | – |
| CC1(C)CC(NC(=O)Cc2ccccc2[N+](=O)[O-])CC(C)(C)N1 | – | 10.3 µM (inactive) |
| CN1CCCN(Cc2cccc(Oc3ccccc3)c2)CC1 | 5.00 | – |
| O=C1CC(N2CCN(Cc3ccc4c(c3)OCO4)CC2)C(=O)N1CCc1ccccc1 (stereo not drawn) | 5.58 | – |
| Cc1cccc(OCCCCN2CCOCC2)c1 | 5.57 | – |
| COc1ccc(CN2CCN(C/C=C/c3ccccc3)CC2)cc1 | 5.18 | – |
